Source: patent US20150175666A1, “PEPTIDES DERIVED FROM HIV GP41 FOR TREATING T-CELL MEDIATED PATHOLOGIES” (Yeda Research and Development Co. Ltd., priority 2012, published 2015)
Like-named read-outs stand apart in the source and are kept apart here. Square brackets hold non-standard residues; d marks the D form. Ends that are not written are not given here. rhodamine = not defined here

Tests used:
[1] = system: MOG35-55-specific murine line T cells (mMOG35-55 T-cells)
[2] = system: TCRα on antigen-stimulated mMOG35-55-specific line T cells; test: Co-localization of Rho-labeled peptides with TCRα (confocal microscopy); format: cell-based, murine; conditions: activated T cells
Chain of TCRα on antigen-stimulated mMOG35-55-specific line T cells (P01849 whole entry): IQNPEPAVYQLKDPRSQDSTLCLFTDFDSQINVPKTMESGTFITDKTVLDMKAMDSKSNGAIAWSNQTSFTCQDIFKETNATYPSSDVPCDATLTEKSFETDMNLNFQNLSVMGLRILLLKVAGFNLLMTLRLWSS
Protocol: FITC excitation was set at 488 nm, with the laser set at 5% power and fluorescence was recorded from 502-525 nm. Rhodamine excitation was set at 559 nm, with the laser set at 1% power and the fluorescence data were collected above 580 nm. Each cell was imaged for TCRα staining (denoted in green) and for peptide staining (denoted in red). Using ImageJ, the images (n=20) were set to binary color and the two revised pictures were used to create a new picture of only what merged between them. The merged picture was divided by the revised red picture to give the percentage of co-localization.
Co-localization of the peptide with the TCR was assessed utilizing confocal microscopy (FIG. 5 D-E). Antigen-stimulated mMOG35-55-specific line T cells were probed with antibodies against TCRα followed by staining with secondary FITC-labeled antibodies (left column) and with the Rho-labeled peptide (SEQ ID NO: 3) (middle column). To evaluate the co-localization between the molecules, a merged image was produced (right column). […] As a control, AMP (SEQ ID NO: 13), a non-related antimicrobial peptide (Papo et al. J Biol Chem. 2005; 280(11):10378-10387), was labeled with rhodamine and its localization on T cells was detected.

TCR (Jurkat T cells) = test: Binding of Rho-labeled peptides to T-cell proteins (cross-linking SDS-PAGE, immunoprecipitation); parameters: species or system human; conditions: for fluorescent bands of T-cell proteins bound to Rho-peptide (SDS-PAGE): 1 μM Rho-labeled peptide, formaldehyde cross-linked Jurkat lysate
Chain of TCR (Jurkat T cells) (P01848 whole entry): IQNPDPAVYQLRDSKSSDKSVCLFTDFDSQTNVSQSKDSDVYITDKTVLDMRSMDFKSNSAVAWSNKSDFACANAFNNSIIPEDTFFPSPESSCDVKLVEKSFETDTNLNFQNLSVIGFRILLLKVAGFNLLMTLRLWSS
Chain of TCR (Jurkat T cells) (P01850 whole entry, further chain): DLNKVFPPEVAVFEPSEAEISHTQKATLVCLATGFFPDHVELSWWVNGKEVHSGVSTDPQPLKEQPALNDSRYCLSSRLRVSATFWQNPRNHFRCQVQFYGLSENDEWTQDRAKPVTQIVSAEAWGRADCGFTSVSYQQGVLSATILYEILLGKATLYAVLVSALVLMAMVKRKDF
Protocol: Jurkat T cells (4×10^6) were incubated over night at 37° C. in the presence of 1 μM rhodamine-labeled peptide and lysed. The lysate was then incubated overnight with TCRα or GFP antibodies (2 μg) following 2 hours of incubation with protein G-plus Agarose beads (Santa Cruz Biotechnology Inc.). Next, the beads were washed with lysis buffer and boiled for 10 minutes; the protein supernatant was then run in a 12% SDS-PAGE. The presence of coimmunoprecipitated peptide was detected by the Typhoon 9400 variable mode imager.
Jurkat T cells (4×10^6) were incubated over night at 37° C. in the presence of 1 μM rhodamine-labeled pep6 (SEQ ID NO:3) and its mutant control peptide. Next, the cells were washed with PBS, crosslinked with 1% formaldehyde and after 10 minutes a 125 mM glycine solution was added to stop the reaction. Formaldehyde is a well known cross-linking agent used in the characterization of protein-protein interactions. The cells were lysed for 30 minutes on ice in a 300 μl lysis buffer followed by a sonication step. Insoluble material was removed by centrifugation at 3000×g for 4 min at 4° C. The proteins were resolved by 12% SDS-PAGE and proteins bound to the fluorescently labeled peptide were detected by the Typhoon 9400 variable mode imager (Amersham Biosciences). Excitation was set at 532 nm, and fluorescence emission was collected by a TAMRA filter (580 nm±30 nm) at 100 μm resolution and 600 volts. The protein loading amount was confirmed by Western blot to actin.
To investigate the interaction of the peptide with the TCR, 1 μM fluorescently labeled Rho-peptides were incubated with Jurkat T cells and then cross-linked with formaldehyde to maintain the interaction with their target proteins. The cross-linked T-cell lysate was resolved by SDS-PAGE and proteins bound to Rho-peptides were detected by the fluorescence of rhodamine (FIG. 5B). […] Western blot for actin was used to assure equal loading. […] Bound proteins were separated by SDS-PAGE and analyzed for the presence of the fluorescently-labeled peptides.

[3] = target: T1, core peptide of TMD from TCRα, CP (GLRILLLKV; SEQ ID NO: 14) (Mus musculus, UniProt P01849); test: Fluorescent measurements of NBD-labeled core peptide of TCRα TMD in LUV; format: binding; conditions: PC:Chol LUV, sequential doses
T1 construct: termed CP (GLRILLLKV); made in house
Protocol: The fluorescence experiments were performed using NBD-labeled core peptides of TCRα (NBD-CP). Fluorescence spectra were obtained at room temperature, with excitation set at 467 nm (10 nm slit) and the emission scan at 500-600 nm (10 nm slits). In a typical experiment, the NBD-CP was first added from a stock solution in DMSO (final concentration of 0.1 μM and a maximum of 0.25% (v/v) DMSO) to a dispersion of PC:Chol LUV (200 μM) in PBS. This was followed by the addition of unlabeled HIV peptides in several sequential doses ranging from 2.5×10-3 μM to 0.4 μM. Fluorescence spectra were obtained before and after the addition of unlabeled HIV peptides. The fluorescence values were corrected by subtracting the corresponding blank (buffer with the same vesicle concentration).
The TCR complex's TMD helices mediate receptor activation through the interactions between basic and acidic residues. […] To investigate this possibility, we utilized NBD fluorescence, which is sensitive to the membrane surroundings; its emission intensity is increased via membrane insertion (Rapaport et al. Embo J. 1995; 14(22):5524-5531). […] Their initial fluorescence emission spectra were first measured in the presence of LUVs alone and then in the presence of several sequential doses of unlabeled peptide and its mutants (SEQ ID NO: 3, 9 and 10) (FIG. 5H).

[4] = system: T-cell lymphocytes derived from mice spleen cells; test: Binding of fluorescently labeled peptides to spleen-derived lymphocytes; format: cell-based
Source text: Further, the T-cell binding affinity of peptides having the amino acid sequence of […] (SEQ ID NO:2 and 11; all L- and all D-amino acids, respectively) was examined. […] Spleen derived B cell lymphocytes were used as a control.

[5] = system: encephalitogenic MOG35-55 reactive T cells (LNCs); test: Ex vivo recall response of lymph node cells from MOG35-55/CFA-immunized mice (proliferation, cytokine ELISA); format: in vivo, C57Bl/6J mice
Protocol: (§1) Mice were subcutaneously immunized with 150 μg MOG35-55 emulsified in complete Freund's adjuvant (CFA) containing 150 μg Mt H37Ra with or without 0.5 mg/kg HIV peptides. Ten days post immunization, draining lymph nodes were removed and cultured in triplicate in the presence or absence of antigen, as previously described. The cultures were incubated for 72 h at 37° C. [3H] Thymidine ([…]) was added for an additional 16 h of incubation and the cultures were then harvested and counted using a Beta Counter. Pro-inflammatory cytokine analysis of IFNγ, IL-12, and TNFα were determined by ELISA, 24 h after cell activation, according to standard protocols from PharMingen (San Diego, Calif.), as described previously
as §1, with “described. […]” for “described. The cultures were incubated for 72 h at 37° C. [3H]”, “described previously. […]” for “described previously”

[6] = MOG35-55 and APCs, peptides 2.5-20 μM

CC[C@H](C)[C@H](NC(=O)[C@H](CCC(N)=O)NC(=O)[C@H](CCC(=O)O)NC(=O)[C@H](CC(C)C)NC(=O)[C@H](CO)NC(=O)[C@H](CCCCN)NC(=O)[C@H](CC(N)=O)NC(=O)[C@H](N)CO)C(=O)N[C@@H](Cc1c[nH]c2ccccc12)C(=O)N[C@@H](CC(N)=O)C(=O)N[C@@H](Cc1c[nH]cn1)C(=O)N[C@H](C(=O)N[C@H](C(=O)N[C@@H](Cc1c[nH]c2ccccc12)C(=O)N[C@@H](CCSC)C(=O)N[C@@H](CCC(=O)O)C(=O)N[C@@H](Cc1c[nH]c2ccccc12)C(=O)N[C@H](CC(=O)O)C(N)=O)[C@@H](C)O)[C@@H](C)O [D-PEP 6, SNKSLEQIWNHTTWMEWD]
IC50 [1]: 3 µM

EQIWNHTTWMEWDREINN-NH2 [SHIFTED PEP 6, EQIWNHTTWMEWDREINN]
IC50 [1]: 10 µM
inhibition of T-cell proliferation (potency in words) [1, 6]: still exhibited potent activity

LQARILAVERYLKDQQL [ISU, LQARILAVERYLKDQQL, reference compound]
IC50 [1]: 15 µM

Rho-AMP: AMP (SEQ ID NO: 13) labeled with rhodamine (KLKLLKLLKLLKLLK; also: rhodamine label, site not given here)
co-localization with TCRα molecules [2]: found throughout the cell membrane

Rho-pep 6: rhodamine N-terminally labeled pep 6 (SEQ ID NO: 3) (rhodamine-SNKSLEQIWNHTTWMEWD-NH2; reading uncertain)
fluorescent bands of T-cell proteins bound to Rho-peptide (SDS-PAGE) (TCR (Jurkat T cells)): only one major fluorescent band
coimmunoprecipitation with TCRα antibodies (TCR (Jurkat T cells); Jurkat T cells, GFP antibody as control): coprecipitated with the TCR

SNKSLEQIGNHTTGMEGD [SEQ ID NO: 9]
fluorescent bands of T-cell proteins bound to Rho-peptide (SDS-PAGE) (TCR (Jurkat T cells)): neither observed
fluorescence emission maxima of NBD-CP upon addition of unlabeled peptide [3]: only a slight increase

SNKSLEQIWNHTTWMGWG [SEQ ID NO: 10]
fluorescence emission maxima of NBD-CP upon addition of unlabeled peptide [3]: only a slight increase

TTAVPWNASWSNKSLEQI-NH2 [PEP 1, TTAVPWNASWSNKSLEQI]
IC50 [1]: > 40 µM
inhibition of T-cell proliferation (potency in words) [1, 6]: not active

WNASWSNKSLEQIWNHT-NH2 [PEP 8, WNASWSNKSLEQIWNHT]
IC50 [1]: 15 µM

WNHTTWMEWD ([dW][dN][dH][dT][dT][dW][dM][dE][dW][dD]) [SEQ ID NO: 11]
binding to T-cell lymphocytes versus B cell lymphocytes [4]: preferably bind T-cell lymphocytes
ex vivo recall proliferative response of LNCs to MOG35-55 ([5]; 0.5 mg/kg peptide, day 10 post immunization): down-regulation

WNHTTWMEWD-NH2 [SHORT PEP 6, WNHTTWMEWD]
binding to T-cell lymphocytes versus B cell lymphocytes [4]: preferably bind T-cell lymphocytes
IC50 [1]: 5 µM
inhibition of T-cell proliferation (potency in words) [1]: still exhibited potent activity
ex vivo recall proliferative response of LNCs to MOG35-55 ([5]; mouse, in vivo): down-regulation
